Source: patent US10654833B2, “ASK1 isoindolin-1-one inhibitors and methods of use thereof” (Hepatikos Therapeutics, LLC, priority 2018, dated 2020)

molecular target: recombinant human ASK1 protein (Homo sapiens (Human), UniProt Q99683); experiment: ASK1 kinase activity inhibition assay (radiometric 33P incorporation into MBP); format: biochemical; conditions: Table 3; 20 μM MBP, 10 μM 33P-ATP
Procedure: ASK1 Kinase Activity Inhibition Assay
Inhibition of ASK1 kinase activity was determined radiometrically using 33P substrate incorporation (Reaction Biology Corp., Malvern, Pa.). Briefly, recombinant human ASK1 protein, 20 μM substrate (myelin basic protein (MBP)), and compound (diluted from DMSO stock to give 1% final DMSO) were incubated in Base Reaction buffer (20 mM Hepes (pH 7.5), 10 mM MgCl2, 1 mM EGTA, 0.02% Brij35, 0.02 mg/mL BSA, 0.1 mM Na3VO4, 2 mM DTT, 1% DMSO) at room temperature for 20 minutes. The reaction was initiated by addition of 10 μM 33P-ATP (specific activity […]). The reaction was then allowed to proceed for 2 hours at room temperature. Upon reaction termination, the mixture was spotted on P81 exchange paper and kinase activity by incorporation of 33P into MBP substrate was detected by filter-binding method.

Chain of recombinant human ASK1 protein (Q99683 whole entry): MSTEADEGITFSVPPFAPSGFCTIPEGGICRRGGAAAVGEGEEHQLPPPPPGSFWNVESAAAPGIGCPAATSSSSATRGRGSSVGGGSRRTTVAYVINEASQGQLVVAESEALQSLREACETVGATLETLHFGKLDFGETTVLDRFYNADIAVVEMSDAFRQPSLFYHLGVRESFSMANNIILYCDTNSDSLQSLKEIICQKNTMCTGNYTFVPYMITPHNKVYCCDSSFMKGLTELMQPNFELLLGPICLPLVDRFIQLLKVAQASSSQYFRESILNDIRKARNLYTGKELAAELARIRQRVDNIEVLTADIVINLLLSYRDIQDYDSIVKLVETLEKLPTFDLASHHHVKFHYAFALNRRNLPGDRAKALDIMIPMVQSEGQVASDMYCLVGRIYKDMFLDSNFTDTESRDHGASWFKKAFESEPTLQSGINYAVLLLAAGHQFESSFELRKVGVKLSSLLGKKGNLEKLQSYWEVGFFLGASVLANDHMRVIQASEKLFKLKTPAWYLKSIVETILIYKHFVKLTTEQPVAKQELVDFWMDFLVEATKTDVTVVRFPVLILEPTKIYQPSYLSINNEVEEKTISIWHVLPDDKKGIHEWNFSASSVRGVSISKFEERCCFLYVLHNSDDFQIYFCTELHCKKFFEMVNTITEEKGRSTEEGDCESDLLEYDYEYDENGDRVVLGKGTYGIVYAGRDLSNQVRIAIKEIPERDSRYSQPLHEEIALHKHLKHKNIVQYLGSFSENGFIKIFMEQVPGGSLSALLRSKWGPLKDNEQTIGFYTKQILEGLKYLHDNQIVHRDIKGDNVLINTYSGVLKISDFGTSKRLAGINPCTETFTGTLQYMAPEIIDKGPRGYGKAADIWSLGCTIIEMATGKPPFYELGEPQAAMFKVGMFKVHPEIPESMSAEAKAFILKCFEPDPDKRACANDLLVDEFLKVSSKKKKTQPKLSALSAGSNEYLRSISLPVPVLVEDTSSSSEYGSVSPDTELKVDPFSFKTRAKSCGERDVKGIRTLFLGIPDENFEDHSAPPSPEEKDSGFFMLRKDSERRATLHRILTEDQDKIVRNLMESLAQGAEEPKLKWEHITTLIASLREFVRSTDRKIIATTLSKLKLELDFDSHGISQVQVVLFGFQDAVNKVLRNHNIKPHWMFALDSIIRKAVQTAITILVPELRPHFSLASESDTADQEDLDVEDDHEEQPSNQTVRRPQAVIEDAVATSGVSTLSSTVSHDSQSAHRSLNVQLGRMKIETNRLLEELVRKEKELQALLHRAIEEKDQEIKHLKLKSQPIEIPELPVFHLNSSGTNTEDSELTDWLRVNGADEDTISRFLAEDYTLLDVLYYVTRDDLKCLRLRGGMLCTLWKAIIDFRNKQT

Row | SMILES | IC50
1 | CC(C)n1cnnc1-c1cccc(N2Cc3ccc(-c4cc(C#N)cc(C(=O)O)c4)cc3C2=O)n1 [Compound 13, 3-Cyano-5-(2-(6-(4-isopropyl-4H-1,2,4-triazol-3-yl)pyridin-2-yl)-3-oxoisoindolin-5-yl) benzoic Acid] | 1.6 nM
2 | COc1c(C)cc(-c2ccc3c(c2)C(=O)N(c2cccc(-c4nncn4C(C)C)n2)C3)cc1C(=O)O [Compound 80, 5-(2-(6-(4-Isopropyl-4H-1,2,4-triazol-3-yl)pyridin-2-yl)-3-oxoisoindolin-5-yl)-2-methoxy-3-methylbenzoic Acid] | 5.2 nM
3 | CC(C)n1cnnc1-c1cccc(N2Cc3ccc(-c4cccc(CCC(=O)O)c4)cc3C2=O)n1 [Compound 107, 3-(3-(2-(6-(4-Isopropyl-4H-1,2,4-triazol-3-yl)pyridin-2-yl)-3-oxoisoindolin-5-yl)phenyl) Propanoic Acid] | 5.2 nM
4 | CC(C)n1cnnc1-c1cccc(N2Cc3ccc(-c4ccc(C5(C(=O)O)CC5)cc4)cc3C2=O)n1 [Compound 86, 1-(4-(2-(6-(4-Isopropyl-4H-1,2,4-triazol-3-yl)pyridin-2-yl)-3-oxoisoindolin-5-yl)phenyl)cyclopropane-1-carboxylic Acid] | 1.83 nM
5 | COC(=O)C(C)(C)c1cccc(-c2ccc3c(c2)C(=O)N(c2cccc(-c4nncn4C4CC4)n2)C3)c1 [Compound 104, Methyl 2-(3-(2-(6-(4-cyclopropyl-4H-1,2,4-triazol-3-yl)pyridin-2-yl)-3-oxoisoindolin-5-yl)phenyl)-2-methylpropanoate] | 46.6 nM
6 | CC(C)n1cnnc1-c1cccc(N2Cc3ccc(-c4ccc5c(C(=O)O)cnn5c4)cc3C2=O)n1 [Compound 122, 6-(2-(6-(4-Isopropyl-4H-1,2,4-triazol-3-yl)pyridin-2-yl)-3-oxoisoindolin-5-yl)pyrazolo[1,5-a]pyridine-3-carboxylic Acid] | 3.9 nM
7 | CC(C)n1cnnc1-c1cccc(N2Cc3ccc(-c4ncc5ccc(C(=O)O)cc5n4)cc3C2=O)n1 [Compound 125, 2-(2-(6-(4-Isopropyl-4H-1,2,4-triazol-3-yl)pyridin-2-yl)-3-oxoisoindolin-5-yl)quinazoline-7-carboxylic Acid] | 7 nM
8 | COc1ncc(-c2ccc3c(c2)C(=O)N(c2cccc(-c4nncn4C(C)C)n2)C3)cc1C(=O)O [Compound 116, 5-(2-(6-(4-Isopropyl-4H-1,2,4-triazol-3-yl)pyridine-2-yl)-3-oxoisoindolin-5-yl)-2-methoxynicotinic Acid] | 4.6 nM
9 | CC(C)n1cnnc1-c1cccc(N2Cc3ccc(-c4ccc5cc(C(=O)O)[nH]c5c4)cc3C2=O)n1 [Compound 61, 6-(2-(6-(4-Isopropyl-4H-1,2,4-triazol-3-yl)pyridin-2-yl)-3-oxoisoindolin-5-yl)-1H-indole-2-carboxylic Acid] | 5.1 nM
10 | CC(C)n1cnnc1-c1cccc(N2Cc3ccc([C@H]4CC[C@@H](C(=O)O)CC4)cc3C2=O)n1 [Compound 127, cis-4-(2-(6-(4-Isopropyl-4H-1,2,4-triazol-3-yl)pyridin-2-yl)-3-oxoisoindolin-5-yl)cyclohexane-1-carboxylic acid] | 14.6 nM
11 | CC(C)n1cnnc1-c1cccc(N2Cc3ccc(-c4cc(F)c(C(=O)O)c(F)c4)cc3C2=O)n1 [Compound 78, 2,6-Difluoro-4-(2-(6-(4-isopropyl-4H-1,2,4-triazol-3-yl)pyridin-2-yl)-3-oxoisoindolin-5-yl) Benzoic Acid] | 4.6 nM
12 | CC(C)n1cnnc1-c1cccc(N2Cc3ccc(-c4ccc(CCC(=O)O)cc4)cc3C2=O)n1 [Compound 90, 3-(4-(2-(6-(4-Isopropyl-4H-1,2,4-triazol-3-yl)pyridin-2-yl)-3-oxoisoindolin-5-yl)phenyl)propanoic Acid] | 4.4 nM
13 | CC(C)n1cnnc1-c1cccc(N2Cc3ccc(-c4cccc(OCC(=O)O)c4)cc3C2=O)n1 [Compound 108, 2-(3-(2-(6-(4-Isopropyl-4H-1,2,4-triazol-3-yl)pyridin-2-yl)-3-oxoisoindolin-5-yl)phenoxy) Acetic Acid] | 5.2 nM
14 | CC(C)n1cnnc1-c1cccc(N2Cc3ccc(-c4ccc5c(c4)COC5=O)cc3C2=O)n1 [Compound 82, 2-(6-(4-Isopropyl-4H-1,2,4-triazol-3-yl)pyridin-2-yl)-6-(1-oxo-1,3-dihydroisobenzofuran-5-yl)isoindolin-1-one] | 3.2 nM
15 | CC(C)n1cnnc1-c1cccc(N2Cc3ccc(N4CCC(C(=O)O)CC4)cc3C2=O)n1 [Compound 128, 1-(2-(6-(4-isopropyl-4H-1,2,4-triazol-3-yl)pyridin-2-yl)-3-oxoisoindolin-5-yl)piperidine-4-carboxylic acid] | 6.16 nM
16 | Cc1cc(C(=O)O)c(C#N)c(-c2ccc3c(c2)C(=O)N(c2cccc(-c4nncn4C(C)C)n2)C3)n1 [Compound 118, 3-Cyano-2-(2-(6-(4-isopropyl-4H-1,2,4-triazol-3-yl)pyridin-2-yl)-3-oxoisoindolin-5-yl)-6-methylisonicotinic Acid] | 67.1 nM
17 | O=C1c2cc(-c3ccc(C4(C(=O)O)CC4)cc3)ccc2CN1c1cccc(-c2nncn2C2CC2)n1 [Compound 87, 1-(4-(2-(6-(4-Cyclopropyl-4H-1,2,4-triazol-3-yl)pyridin-2-yl)-3-oxoisoindolin-5-yl)phenyl)cyclopropane-1-carboxylic Acid] | 2.5 nM
18 | O=C(O)CC1CCN(c2ccc3c(c2)C(=O)N(c2cccc(-c4nncn4C4CC4)n2)C3)CC1 [Compound 130, 2-(1-(2-(6-(4-Cyclopropyl-4H-1,2,4-triazol-3-yl)pyridin-2-yl)-3-oxoisoindolin-5-yl)piperidin-4-yl)acetic Acid] | 19.2 nM

Second part, the compound after the results:

Row | IC50 | SMILES
19 | 12.4 nM | O=C(O)c1ccc(F)c(-c2ccc3c(c2)C(=O)N(c2cccc(-c4nncn4C4CC4)n2)C3)c1 [Compound 93, 3-(2-(6-(4-Cyclopropyl-4H-1,2,4-triazol-3-yl)pyridin-2-yl)-3-oxoisoindolin-5-yl)-4-fluorobenzoic Acid]
20 | 34.4 nM | CC(C)n1cnnc1-c1cccc(N2Cc3ccc(-c4ccc(Cl)cc4C(=O)O)cc3C2=O)n1 [Compound 65, 5-Chloro-2-(2-(6-(4-isopropyl-4H-1,2,4-triazol-3-yl)pyridin-2-yl)-3-oxoisoindolin-5-yl)benzoic Acid]
21 | 6.57 nM | COC(=O)c1ccc(F)c(-c2ccc3c(c2)C(=O)N(c2cccc(-c4nncn4C(C)C)n2)C3)c1 [Compound 100, Methyl 4-fluoro-3-(2-(6-(4-isopropyl-4H-1,2,4-triazol-3-yl)pyridin-2-yl)-3-oxoisoindolin-5-yl)benzoate]
22 | 8.2 nM | COc1cc(C(=O)O)ccc1-c1ccc2c(c1)C(=O)N(c1cccc(-c3nncn3C(C)C)n1)C2 [Compound 76, 4-(2-(6-(4-Isopropyl-4H-1,2,4-triazol-3-yl)pyridin-2-yl)-3-oxoisoindolin-5-yl)-3-methoxybenzoic Acid]
23 | 5.1 nM | CC(C)n1cnnc1-c1cccc(N2Cc3ccc(-c4ccc(C(=O)O)cc4CO)cc3C2=O)n1 [Compound 58, 3-(Hydroxymethyl)-4-(2-(6-(4-isopropyl-4H-1,2,4-triazol-3-yl)pyridin-2-yl)-3-oxoisoindolin-5-yl)benzoic Acid]
24 | 4.9 nM | CC(C)n1cnnc1-c1cccc(N2Cc3ccc(-c4ccc(F)c(C(=O)O)c4)cc3C2=O)n1 [Compound 3, 2-Fluoro-5-(2-(6-(4-isopropyl-4H-1,2,4-triazol-3-yl)pyridin-2-yl)-3-oxoisoindolin-5-yl)benzoic Acid]
25 | 5.7 nM | Cc1cc(C(=O)O)ccc1-c1ccc2c(c1)C(=O)N(c1cccc(-c3nncn3C(C)C)n1)C2 [Compound 74, 4-(2-(6-(4-Isopropyl-4H-1,2,4-triazol-3-yl)pyridin-2-yl)-3-oxoisoindolin-5-yl)-3-methylbenzoic Acid]
26 | 4.3 nM | CC(C)n1cnnc1-c1cccc(N2Cc3ccc(-c4cccc(C(=O)O)c4F)cc3C2=O)n1 [Compound 2, 2-Fluoro-3-(2-(6-(4-isopropyl-4H-1,2,4-triazol-3-yl)pyridin-2-yl)-3-oxoisoindolin-5-yl) Benzoic Acid]
27 | 5.6 nM | Cc1ccc(-c2ccc3c(c2)C(=O)N(c2cccc(-c4nncn4C(C)C)n2)C3)cc1C(=O)O [Compound 9, 5-(2-(6-(4-Isopropyl-4H-1,2,4-triazol-3-yl)pyridin-2-yl)-3-oxoisoindolin-5-yl)-2-methylbenzoic acid]
28 | 5 nM | CC(C)n1cnnc1-c1cccc(N2Cc3ccc(-c4ccc(Cl)c(C(=O)O)c4)cc3C2=O)n1 [Compound 60, 2-Chloro-5-(2-(6-(4-isopropyl-4H-1,2,4-triazol-3-yl)pyridin-2-yl)-3-oxoisoindolin-5-yl)benzoic Acid]
29 | 3.4 nM | CC(C)n1cnnc1-c1cccc(N2Cc3ccc(-c4cccc(C(=O)O)c4O)cc3C2=O)n1 [Compound 95, 2-Hydroxy-3-(2-(6-(4-isopropyl-4H-1,2,4-triazol-3-yl)pyridin-2-yl)-3-oxoisoindolin-5-yl) benzoic Acid]
30 | 6.37 nM | COC(=O)c1cccc(-c2ccc3c(c2)C(=O)N(c2cccc(-c4nncn4C(C)C)n2)C3)c1 [Compound 99, Methyl 3-(2-(6-(4-isopropyl-4H-1,2,4-triazol-3-yl)pyridin-2-yl)-3-oxoisoindolin-5-yl)benzoate]
31 | 5.6 nM | COc1cc(-c2ccc3c(c2)C(=O)N(c2cccc(-c4nncn4C(C)C)n2)C3)ccc1C(=O)O [Compound 75, 4-(2-(6-(4-Isopropyl-4H-1,2,4-triazol-3-yl)pyridin-2-yl)-3-oxoisoindolin-5-yl)-2-methoxybenzoic Acid]
32 | 4.9 nM | Cc1c(F)cc(C(=O)O)cc1-c1ccc2c(c1)C(=O)N(c1cccc(-c3nncn3C(C)C)n1)C2 [Compound 98, 3-Fluoro-5-(2-(6-(4-isopropyl-4H-1,2,4-triazol-3-yl)pyridin-2-yl)-3-oxoisoindolin-5-yl)-4-methylbenzoic Acid]
